What is called EC50 is the concentration giving half of the maximal effect.

The source of these data is patent US9850227B2 (YUHAN CORPORATION, priority 2011, dated 2017).

Structures are written as SMILES. Where a name gives a salt, the structure may show the parent alone.

In this test the target is T1, human 5-HT4(a) (Homo sapiens, UniProt Q13639).
T1 construct: host or cells: GeneBIAzer HTR4-CRE-bla CHO-K1 cells
T1 sequence (Q13639 1-387 isoform Q13639-2): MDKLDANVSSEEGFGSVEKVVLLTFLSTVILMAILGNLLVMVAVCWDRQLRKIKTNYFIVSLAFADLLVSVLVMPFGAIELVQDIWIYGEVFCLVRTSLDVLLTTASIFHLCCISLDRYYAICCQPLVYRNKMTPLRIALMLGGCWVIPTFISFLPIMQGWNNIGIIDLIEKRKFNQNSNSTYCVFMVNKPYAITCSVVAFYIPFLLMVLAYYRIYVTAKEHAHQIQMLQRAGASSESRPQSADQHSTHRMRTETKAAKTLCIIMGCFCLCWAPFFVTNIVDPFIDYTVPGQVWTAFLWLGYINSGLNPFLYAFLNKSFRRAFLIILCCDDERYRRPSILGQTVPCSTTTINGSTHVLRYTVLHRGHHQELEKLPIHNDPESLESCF
The test can be described thus: Evaluation of agonistic activity in CHO-K1 cells expressing human 5-HT4(a) (GeneBIAzer HTR4-CRE-bla CHO-K1 cells, beta-lactamase fluorescence ratio, EC50 from 8 concentrations). Type of test: cell-based. In a few lines: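 HTR4-CRE-bla CHO-K1 cells (10^4 per well, overnight in 1% FBS medium) exposed to compound for 5 h, then beta-lactamase substrate 2 h in the dark. Fluorescence ratio at 465/535 nm after 410 nm excitation; EC50 by non-linear regression over 8 concentrations.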
Turning to `CCCCc1cc(N2CCC[C@@H](N)C2)nc(Nc2ccc(C)c(C#N)c2)n1` [Example 293, (R)-5-[4-(3-aminopiperidin-1-yl)-6-butylpyrimidin-2-ylamino]-2-methylbenzonitrile], the EC50 is 0.023 nM. As for `CCCCc1cc(N2CCC[C@@H](N)C2)nc(Nc2ccc(F)c(C#N)c2)n1` [Example 294, (R)-5-[4-(3-aminopiperidin-1-yl)-6-butylpyrimidin-2-ylamino]-2-fluorobenzonitrile], the figure is 0.108 nM; as for `CCCCc1cc(N2CCC[C@@H](NC(C)=O)C2)nc(Nc2ccc(C)c(C#N)c2)n1` [Example 295, (R)—N-{1-[6-butyl-2-(3-cyano-4-methylphenylamino)pyrimidin-4-yl]piperidin-3-yl}acetamide], 0.0086 nM; as for `CCCc1cc(N2CCC[C@H](NCC)C2)nc(Nc2ccc(C)c(C#N)c2)n1` [Example 296, (S)-5-[4-(3-ethylaminopiperidin-1-yl)-6-propylpyrimidin-2-ylamino]-2-methylbenzonitrile dihydrochloride], 0.015 nM. As for `CCCc1cc(N2CCCC(NCC)C2)nc(Nc2ccc(C)c(C#N)c2)n1` (stereo not drawn) [Example 297, 5-[4-(3-ethylaminopiperidin-1-yl)-6-propylpyrimidin-2-ylamino]-2-methylbenzonitrile dihydrochloride], the EC50 stood at 0.0024 nM. As to `CCCCc1cc(N2CCCC(NC(C)=O)C2)nc(Nc2ccc(C)c(C#N)c2)n1` (stereo not drawn) [Example 298, N-{1-[6-butyl-2-(3-cyano-4-methylphenylamino)pyrimidin-4-yl]piperidin-3-yl}acetamide hydrochloride], the EC50 turned out to be 0.012 nM. The result for `CCCCc1cc(N2CCC[C@@H](NCC)C2)nc(Nc2ccc(C)c(C#N)c2)n1` [Example 299, (R)-5-({4-butyl-6-[3-(ethylamino)piperidin-1-yl]pyrimidin-2-yl}amino)-2-methylbenzonitrile] reads 0.004 nM; that for `CCCCN[C@@H]1CCCN(c2cc(CCCC)nc(Nc3ccc(C)c(C#N)c3)n2)C1` [Example 300, (R)-5-({4-butyl-6-[3-(butylamino)piperidin-1-yl]pyrimidin-2-yl}amino)-2-methylbenzonitrile], 0.0097 nM; that for `CCCCCN[C@@H]1CCCN(c2cc(CCCC)nc(Nc3ccc(C)c(C#N)c3)n2)C1` [Example 301, (R)-5-({4-butyl-6-[3-(pentylamino)piperidin-1-yl]pyrimidin-2-yl}amino)-2-methylbenzonitrile], 0.019 nM. `CCCCc1cc(N2CCC[C@@H](NCC(C)C)C2)nc(Nc2ccc(C)c(C#N)c2)n1` [Example 302, (R)-5-({4-butyl-6-[3-(isobutylamino)piperidin-1-yl]pyrimidin-2-yl}amino)-2-methylbenzonitrile]: the 50% effective concentration (EC50) is 0.019 nM. As for `CCCCc1cc(N2CCC[C@@H](NCCC(C)C)C2)nc(Nc2ccc(C)c(C#N)c2)n1` [Example 303, (R)-5-({4-butyl-6-[3-(isopentylamino)piperidin-1-yl]pyrimidin-2-yl}amino)-2-methylbenzonitrile], the figure is 0.025 nM. The result for `CCCCc1cc(N2CCC[C@@H](NCC(C)(C)C)C2)nc(Nc2ccc(C)c(C#N)c2)n1` [Example 304, (R)-5-({4-butyl-6-[3-(neopentylamino)piperidin-1-yl]pyrimidin-2-yl}amino)-2-methylbenzonitrile] reads 0.049 nM; that for `CCCCc1cc(N2CCC[C@@H](NCCCSC)C2)nc(Nc2ccc(C)c(C#N)c2)n1` [Example 305, (R)-5-{[4-butyl-6-(3-{[3-(methylthio)propyl]amino}piperidin-1-yl)pyrimidin-2-yl]amino}-2-methylbenzonitrile], 0.0091 nM; that for `CCCc1cc(N2CCC[C@@H](NC)C2)nc(Nc2ccc(F)c(N)c2)n1` [Example 306, (R)-4-fluoro-N^1-{4-[3-(methylamino)piperidin-1-yl]-6-propylpyrimidin-2-yl}benzene-1,3-diamine], 0.015 nM.

Consider `CCCc1cc(N2CCC[C@@H](NC)C2)nc(Nc2ccc(Cl)c(N)c2)n1` [Example 307, (R)-4-chloro-N^1-{4-[3-(methylamino)piperidin-1-yl]-6-propylpyrimidin-2-yl}benzene-1,3-diamine], for which the half-maximal effective concentration (EC50) was determined as 0.004 nM.

As to `CCCc1cc(N2CCC[C@@H](NC)C2)nc(Nc2ccc(N)c(C#N)c2)n1` [Example 308, (R)-2-amino-5-({4-[3-(methylamino)piperidin-1-yl]-6-propylpyrimidin-2-yl}amino)benzonitrile], the EC50 was determined as 0.013 nM.

As to `CCCc1cc(N2CCC[C@@H](NC)C2)nc(Nc2ccc(C)c(OC)c2)n1` [Example 309, (R)—N-(3-methoxy-4-methylphenyl)-4-[3-(methylamino)piperidin-1-yl]-6-propylpyrimidin-2-amine], the EC50 is 0.011 nM. As for `CCCc1cc(N2CCC[C@@H](NC)C2)nc(Nc2ccc(C)c(N)c2)n1` [Example 310, (R)-4-methyl-N^1-{4-[3-(methylamino)piperidin-1-yl]-6-propylpyrimidin-2-yl}benzene-1,3-diamine], the figure is 0.047 nM; as for `CCCCc1cc(N2CCC[C@@H](NC)C2)nc(Nc2ccc(C)c(C#N)c2)n1` [Example 311, (R)-5-({4-butyl-6-[3-(methylamino)piperidin-1-yl]pyrimidin-2-yl}amino)-2-methylbenzonitrile], 0.0026 nM; as for `CCCCc1cc(N2CCC[C@@H](NC)C2)nc(Nc2ccc(F)c(C#N)c2)n1` [Example 312, (R)-5-({4-butyl-6-[3-(methylamino)piperidin-1-yl]pyrimidin-2-yl}amino)-2-fluorobenzonitrile], 0.014 nM. As for `CCCCc1cc(N2CCC[C@@H](NC)C2)nc(Nc2cc(N)cc(C(F)(F)F)c2)n1` [Example 313, (R)—N^1-{4-butyl-6-[3-(methylamino)piperidin-1-yl]pyrimidin-2-yl}-5-(trifluoromethyl)benzene-1,3-diamine], the EC50 was 0.005 nM. In the case of `CCCCc1cc(N2CCC[C@@H](NC)C2)nc(Nc2ccc(N)c(C(F)(F)F)c2)n1` [Example 314, (R)—N^1-{4-butyl-6-[3-(methylamino)piperidin-1-yl]pyrimidin-2-yl}-3-(trifluoromethyl)benzene-1,4-diamine], the EC50 stood at 0.0019 nM. The result for `CCCCc1cc(N2CCC[C@@H](NC)C2)nc(Nc2cc(N)cc(C#N)c2)n1` [Example 315, (R)-3-amino-5-({4-butyl-6-[3-(methylamino)piperidin-1-yl]pyrimidin-2-yl}amino)benzonitrile] reads 0.0012 nM. For `CCCCc1cc(N2CCC[C@@H](NC)C2)nc(Nc2ccc(N)c(C#N)c2)n1` [Example 316, (R)-2-amino-5-({4-butyl-6-[3-(methylamino)piperidin-1-yl]pyrimidin-2-yl}amino)benzonitrile], the EC50 turned out to be 0.0067 nM. Turning to `CCCCc1cc(N2CCC[C@@H](NC)C2)nc(Nc2ccc(F)c(N)c2)n1` [Example 317, (R)—N^1-{4-butyl-6-[3-(methylamino)piperidin-1-yl]pyrimidin-2-yl}-4-fluorobenzene-1,3-diamine], the half-maximal effective concentration (EC50) turned out to be 0.0066 nM.

`CCCCc1cc(N2CCC[C@@H](NC)C2)nc(Nc2ccc(C)c(OC)c2)n1` [Example 318, (R)-4-butyl-N-(3-methoxy-4-methylphenyl)-6-[3-(methylamino)piperidin-1-yl]pyrimidin-2-amine]: the concentration giving a half-maximal response (EC50) was 0.025 nM. `CCCCc1cc(N2CCC[C@@H](NC)C2)nc(Nc2ccc(C)c(N)c2)n1` [Example 319, (R)—N^1-{4-butyl-6-[3-(methylamino)piperidin-1-yl]pyrimidin-2-yl}-4-methylbenzene-1,3-diamine]: the concentration giving a half-maximal response (EC50) was 0.0047 nM. As for `CCCCc1cc(N2CCC[C@@H](NC)C2)nc(Nc2ccc(F)c(C(F)(F)F)c2)n1` [Example 320, (R)-4-butyl-N-[4-fluoro-3-(trifluoromethyl)phenyl]-6-[3-(methylamino)piperidin-1-yl]pyrimidin-2-amine], the EC50 came out at 0.018 nM. As for `CCCc1cc(N2CCC[C@@H](NC)C2)nc(Nc2ccc(N)c([N+](=O)[O-])c2)n1` [Example 321, (R)—N^1-{4-[3-(methylamino)piperidin-1-yl]-6-propylpyrimidin-2-yl}-3-nitrobenzene-1,4-diamine dihydrochloride], the EC50 is 0.0031 nM.

On to `CCCc1cc(N2CCC[C@@H](NC)C2)nc(Nc2ccc(C)c(C)c2)n1` [Example 322, (R)—N-(3,4-dimethylphenyl)-4-[3-(methylamino)piperidin-1-yl]-6-propylpyrimidin-2-amine], for which the concentration for a half-maximal effect (EC50) was 0.243 nM. As for `CCCc1cc(N2CCC[C@@H](NC)C2)nc(Nc2ccc(C)c(F)c2)n1` [Example 323, (R)—N-(3-fluoro-4-methylphenyl)-4-[3-(methylamino)piperidin-1-yl]-6-propylpyrimidin-2-amine], the figure is 0.416 nM; as for `CCCc1cc(N2CCC[C@@H](NC)C2)nc(Nc2ccc(C)c(C(F)(F)F)c2)n1` [Example 324, (R)—N-[4-methyl-3-(trifluoromethyl)phenyl]-4-[3-(methylamino)piperidin-1-yl]-6-propylpyrimidin-2-amine], 0.0087 nM. Regarding `CCCCc1cc(N2CCC[C@@H](NC)C2)nc(Nc2ccc(N)c([N+](=O)[O-])c2)n1` [Example 328, (R)—N^1-{4-butyl-6-[3-(methylamino)piperidin-1-yl]pyrimidin-2-yl}-3-nitrobenzene-1,4-diamine dihydrochloride], the EC50 worked out at 0.0029 nM. `CCCCc1cc(N2CCC[C@@H](NC)C2)nc(Nc2cccc(C#N)c2)n1` [Example 329, (R)-3-({4-butyl-6-[3-(methylamino)piperidin-1-yl]pyrimidin-2-yl}amino)benzonitrile]: the 50% effective concentration (EC50) is 0.054 nM. Take `CCCCc1cc(N2CCC[C@@H](NC)C2)nc(Nc2ccc(C)c(C)c2)n1` [Example 330, (R)-4-butyl-N-(3,4-dimethylphenyl)-6-[3-(methylamino)piperidin-1-yl]pyrimidin-2-amine]: the EC50 was found to be 0.086 nM. `CCCCc1cc(N2CCC[C@@H](NC)C2)nc(Nc2ccc(C)c(F)c2)n1` [Example 331, (R)-4-butyl-N-(3-fluoro-4-methylphenyl)-6-[3-(methylamino)piperidin-1-yl]pyrimidin-2-amine]: the EC50 stood at 0.218 nM.
